Measured values published in patent US20260209260A1, “VECTORIZED NHC IRIDIUM(III) COMPLEXES AND USE THEREOF IN PHOTODYNAMIC THERAPY AND/OR DIAGNOSTIC” (CENTRE NATIONAL DE LA RECHERCHE SCIENTIFIQUE, priority 2022, published 2026).
Values joined by “and” are separate entries in the source; they are usually repeats but may differ in a detail not shown here. Equal entries are not always repeated. Where two headings read alike, the source gives them in different places.

How the values were obtained:
[1] = test system: NIH-3T3 fibroblast cells (non-tumor); assay: Cell viability assay (MTT), dark and blue light; format: cell-based, Murine; settings: for Photosensitizing index (PI) NIH-3T3: dark vs blue light 458 nm
Protocol: (§1) Cells were grown in humidified incubators at 37° C. in 5% CO2. Murine MC3T3 osteoblast and NIH-3T3 fibroblast cells-used as non-tumor cell models-were cultured in a-MEM medium and DMEM medium supplemented with 10% fetal bovine serum (FBS) and 1% Penicillin/Streptomycin (P/S) antibiotics, respectively. Human T24 bladder, MGHU3 bladder, Scaber bladder, A549 lung, MCF7 breast, MiaPaCa2 pancreas cancer cells were cultured in DMEM medium supplemented with 10% FBS and 1% P/S antibiotics. […] Human Hela cervix and HepG2 liver cancer cells were cultured EMEM medium supplemented with 10% FBS and 1% P/S antibiotics.
(§2) MTT reagent (3-(4,5-dimethylthiazol-2-yl)-2,5-diphenyltetrazolium bromide) was used to determine cell death as originally described by Mosmann. Briefly, cells were seeded from 5,000 to 10,000 cells/well in 24-well plates (1 mL) depending on the cell type and allowed to attach overnight. The complexes were prepared in DMSO. The concentration of the complexes was calculated based on the elemental composition of the complexes determined by the elemental analyses. All cell viability experiments were carried out with a fixed concentration of 0.1% (v/v) DMSO. After 72 h of treatment, cells were incubated at 37° C. and 5% CO2 with 25 μL of MTT solution (5 mg/ml; Sigma-Aldrich) in 24-well plates for 3 to 4 h. After solubilization with 500 μL of DMSO, formazan was quantified spectrophotometrically with a microplate reader at 570 nm absorbance (ClarioSTAR, BMG LabTech). […] All the results were calculated from data obtained in at least three independent experiments performed in triplicate.
(§3) Two sets of experiments were conducted in parallel for each complex to be studied:
(§4) 1. The cells were incubated with the different complexes (in the dark) for 72 h.
(§5) 2. The cells were incubated for 8 h with the different complexes (in the dark), then irradiated for 10 min, followed by an incubation in the dark up to 72 h.

[2] = Lipophilicity: octanol-water partition coefficient, shake-flask method
Protocol: The octanol-water partition coefficients (P) of all the complexes were determined using a shake-flask method^8. Water (100 mL, distilled after milli-Q purification) and n-octanol (100 mL, Sigma Aldrich, ACS spectrophotometric grade, ≥99%) were shaken together for 24 h to allow saturation of both phases. Stock solutions of the compounds ([…]) were prepared in the aqueous phase. Aliquots (2 mL) of each of these stock solutions were then added to an equal volume of the n-octanol phase. The resultant biphasic solution was mixed for 15 min and then centrifuged (3000 tr/min, 5 min) to separate the phases. The concentrations of the complex in the organic and aqueous phases were then determined using UV absorbance spectroscopy (260 nm). The blank is the water saturated with n-octanol. Log P was defined as logarithm of the ratio of the concentrations of the complex in the organic and aqueous phases (values reported are the means of at least three separated determinations).
The Log P values have been determined by a classical shake-flask method.

[3] = test system: T24 bladder cancer cells; assay: Cell viability assay (MTT), dark and blue light; format: cell-based, Human; settings: for SI (vs NIH-3T3) T24 Blue: blue light 458 nm; for Photosensitizing index (PI) T24: dark vs blue light 458 nm
Protocol: as §1, §2, §3, §4, §5

[4] = Luminescence emission spectra and quantum yield; format: physicochemical; settings: for ΦP emission phosphorescence quantum yield: room temperature, reference POPOP in hexane or rhodamine B in ethanol
Protocol: Fluorescence and phosphorescence emission spectra were obtained with a HORIBA JOBIN YVON, fluromax-4 and spectrofluorometer.
Luminescence quantum yields were measured according to the method of Demas and Crosby, on solution samples at RT. The quantum yield is defined as: […]
Where ΦP is the quantum yield of the sample, ΦR is the know quantum yield of the reference standard. […].
The luminescence spectra of vectorized iridium(III) complexes were determined in CH2Cl2 at room temperature (Table 3).

[5] = UV/Vis absorption spectra; format: physicochemical; settings: room temperature; for λmax (nm) ε (M^−1 · cm^−1): air-saturated CH2Cl2 or CH2Cl2/MeOH (1:1), 50 μM, ε in brackets, sh = shoulder; for maximum absorption, lowest-lying bands in the visible region over 360 nm: CH2Cl2 or CH2Cl2/MeOH (1:1)
Protocol: UV/Vis absorption spectra were recorded at RT on solutions contained in quartz cuvettes (optical pathlength 1 cm, Hellma®) with a PerkinElmer® UV/VIS/NIR spectrophotometer Lambda 950 and a PerkinElmer® detector UV/VIS/NIR Accessory 2D Detector Module.

[6] = Emission lifetime measurement; format: physicochemical
Protocol: Fluorescence lifetime measurements were performed by an Edinburgh FLS920 spectrofluorimeter equipped with a TCC900 card for data acquisition in time-correlated single-photon counting experiments (0.5 ns time resolution) with a D2 lamp and an LDH—P-C-405 pulsed diode laser. The estimated experimental error is 2 nm on the band maximum (5% on the lifetime, 10% on the fluorescence quantum yield).
The emission lifetimes of biotin-vectorized complexes (I-a) to (I-l) range from 138 ns to 411 ns, among them, the lifetime of biotin-vectorized complexes (I-c), (I-e), (I-k) are 411, 224, and 322 ns respectively. The emission lifetimes of FTS-vectorized complexes (II-a) to (II-l) range from 167 ns to 486 ns, among them, the lifetime of FTS-vectorized complexes (II-c) and (II-k) are 319 and 486 ns respectively. The emission lifetimes of PSMA-vectorized complexes (III-a) to (III-l) are in the range of 159-649 ns, among them, the lifetime of complexes (III-a) and (III-k) were 248 and 649 ns, respectively. The emission lifetimes of Fc-vectorized complexes (IV-a) to (IV-l) are in the range of 178-228 ns.

[7] = test system: MC3T3 osteoblast cells (non-tumor); assay: Cell viability assay (MTT), dark and blue light; format: cell-based, Murine; settings: in the dark, 72 h; read-out: GI50 MC3T3 Dark
Protocol: as §1, §2, §3, §4, §5

[8] = test system: C4-2B prostate cancer cells (PSMA-positive); assay: Cell viability assay (MTT), dark and blue light; format: cell-based, Human; settings: dark vs blue light 458 nm
Protocol: (§6) Cells were grown in humidified incubators at 37° C. in 5% CO2. Murine MC3T3 osteoblast and NIH-3T3 fibroblast cells-used as non-tumor cell models-were cultured in a-MEM medium and DMEM medium supplemented with 10% fetal bovine serum (FBS) and 1% Penicillin/Streptomycin (P/S) antibiotics, respectively. Human T24 bladder, MGHU3 bladder, Scaber bladder, A549 lung, MCF7 breast, MiaPaCa2 pancreas cancer cells were cultured in DMEM medium supplemented with 10% FBS and 1% P/S antibiotics. Human ASPC-1 pancreas, PC-3 prostate, DU-145 prostate, C4-2B prostate and 22rV1 prostate cancer cells were cultured in RPMI medium supplemented with 10% FBS and 1% P/S antibiotics. Human Hela cervix and HepG2 liver cancer cells were cultured EMEM medium supplemented with 10% FBS and 1% P/S antibiotics.
as §2
(§7) Irradiation was conducted using an in-house device, a series of blue light LEDs selected according to the absorption spectra of the compounds at 458 nm wavelength with an emitted power of 9.6 Watts. The light fluence was measured at 458 nm with an optical power meter Thorlabs PM100A at different distances between the cell layer and the light source (5 and 10 cm).
as §3, §4, §5

[9] = test system: PC-3 prostate cancer cells (PSMA-negative); assay: Cell viability assay (MTT), dark and blue light; format: cell-based, Human
Protocol: as §6, §2, §7, §3, §4, §5

[10] = 8 h in the dark, blue light 458 nm 10 min, then dark up to 72 h, read-out: GI50 NIH-3T3 Blue
[11] = in the dark, 72 h, read-out: GI50 NIH-3T3 Dark
[12] = n-octanol/water, shake-flask, mean of at least three determinations
[13] = 8 h in the dark, blue light 458 nm 10 min, then dark up to 72 h, read-out: GI50 T24 Blue
[14] = in the dark, 72 h, read-out: GI50 T24 Dark

| SMILES | GI50 [1, 10] [µM] | GI50 [1, 11] [µM] | Log P [2, 12] | GI50 [3, 13] | SI (vs NIH-3T3) T24 Blue [3] | SI (vs NIH-3T3) T24 Dark [3] | Photosensitizing index (PI) T24 [3] | GI50 [3, 14] | ΦP emission phosphorescence quantum yield [4] [%] | λmax (nm) ε (M^−1 · cm^−1) [5] | τ1 emission lifetime [6] [ns] | maximum absorption, lowest-lying bands in the visible region over 360 nm [5] | Photosensitizing index (PI) NIH-3T3 [1] | also measured |
| --- | --- | --- | --- | --- | --- | --- | --- | --- | --- | --- | --- | --- | --- | --- |
| COC(=O)c1ccc2[c](c1)[Ir-3]13([c]4cc(C(=O)OC)ccc4-c4cccc[n+]41)([c]1n(CCCNC(=O)CCCC[C@@H]4SC[C@@H]5NC(=O)N[C@@H]54)cc[n+]1-c1cccc[n+]13)[n+]1ccccc1-2.F[P-](F)(F)(F)(F)F [I-c] | > 100 | > 100 | −0.78 ± 0.01 | 24.9 µM and 24.5 µM | >4.1 | >3.7 | 1.1 | 26.7 µM and 26.9 µM | 5.9 | 310 (sh) (16860), 358 (4090), 400 (3295) nm (M^−1 · cm^−1) | 411 |  |  |  |
| COC(=O)c1cccc2[c]1[Ir-3]13([c]4c(C(=O)OC)cccc4-c4cccc[n+]41)([c]1n(CCCNC(=O)CCCC[C@@H]4SC[C@@H]5NC(=O)N[C@@H]54)cc[n+]1-c1cccc[n+]13)[n+]1ccccc1-2.F[P-](F)(F)(F)(F)F [I-d] | > 100 | > 100 | −0.10 ± 0.01 | 28.9 µM and 26.9 µM | >3.7 | >3.8 | 1.0 | 26.3 µM | 0.7 | 373 (4260) nm (M^−1 · cm^−1) | 184 | around 370 nm |  |  |
| F[P-](F)(F)(F)(F)F.O=C(CCCC[C@@H]1SC[C@@H]2NC(=O)N[C@@H]21)NCCCn1cc[n+]2[c]1[Ir-3]13([c]4cccc5ccc6ccc[n+]1c6c45)([c]1cccc4ccc5ccc[n+]3c5c14)[n+]1ccccc1-2 [I-i] | > 100 | > 100 |  | 35.4 µM |  |  | 1.4 |  | <0.1 | 320 (13840), 410 (3920) nm (M^−1 · cm^−1) | 210 |  | >1 | GI50 [7]: 50.2 µM; Log P [2]: 0.60 ± 0.06; λem ([4]; CH2Cl2, room temperature, λexc 365 nm or 470 nm): 522-567 nm |
| Cc1ccc2[c](c1)[Ir-3]13([c]4cc(C)ccc4-c4cccc[n+]41)([c]1n(CCC(=O)NCCCC[C@H](NC(=O)N[C@@H](CCC(=O)O)C(=O)O)C(=O)O)cc[n+]1-c1cccc[n+]13)[n+]1ccccc1-2.F[P-](F)(F)(F)(F)F [III-b] | > 100 | > 100 | −0.14 ± 0.04 |  |  |  |  |  | 1.8 | 310 (sh) (23310), 379 (7615) nm (M^−1 · cm^−1) | 194 | around 380 nm | did not show any photosensitizing effect | GI50 ([1]; NIH-3T3, blue light, read-out: GI50): > 100 µM; GI50 ([1]; NIH-3T3, dark, read-out: GI50): > 100 µM; Photosensitizing index (PI) C4-2b [8]: did not show any photosensitizing effect; GI50 ([9]; 8 h in the dark, blue light 458 nm 10 min, then dark up to 72 h, read-out: GI50 PC-3 Blue): > 100 µM; GI50 ([9]; PC3, blue light, read-out: GI50): > 100 µM; GI50 ([9]; PC3, dark, read-out: GI50): > 100 µM; SI (vs NIH-3T3) PC-3 Blue ([9]; blue light 458 nm): 1.0; Photosensitizing index (PI) PC-3 ([9]; dark vs blue light 458 nm): did not show any photosensitizing effect; GI50 ([9]; in the dark, 72 h, read-out: GI50 PC-3 Dark): > 100 µM |
